For series [1], the system named is Plasmodium falciparum. The experiment in a line: NOVARTIS: Inhibition of Plasmodium falciparum W2 (drug-resistant) proliferation in erythrocyte-based infection assay. The series is classed as functional, organism-based. Conditions: Plasmodium falciparum, W2; read-out: EC50.
The nature of series [2]: NOVARTIS: Cytotoxicity against human hepatocellular carcinoma cell line (Huh7). The series is classed as toxicity, cell-based, Huh-7. As to conditions: Huh7 cells (hepatocellular carcinoma cell line).
Series [3] deals with Plasmodium falciparum. Description: NOVARTIS: Inhibition of Plasmodium falciparum 3D7 (drug-susceptible) proliferation in erythrocyte-based infection assay. In kind it is functional, organism-based. As to conditions: Plasmodium falciparum, 3D7.

In the case of `CCCN1/C(=C/c2sc3ccccc3[n+]2CC)C=Cc2ccccc21`, the EC50 was found to be 1340 nM with Plasmodium falciparum [1] and 820 nM with Plasmodium falciparum [3]. In addition, the 50% cytotoxic concentration (CC50) in series [2] was greater than 10 µM.

In the case of `COc1ccccc1N1CCN(c2ccc(NC(=O)/C=C/c3ccc([N+](=O)[O-])cc3)cc2C(=O)NCCCN(C)C)CC1`, the results for the concentration for a half-maximal effect (EC50) in the series on Plasmodium falciparum [1] and in the series with Plasmodium falciparum [3] were 121 nM and 290 nM, respectively. The 50% cytotoxic concentration (CC50) in series [2] amounted to 0.921 µM.

Turning to `CCN(Cc1ccccc1)c1ncnc2ccc(Br)cc12`, the 50% effective concentration (EC50) in the series with Plasmodium falciparum [1] is greater than 12500 nM; with Plasmodium falciparum [3] it was 7440 nM. Moreover, the CC50 in series [2] amounted to 95.3 µM.

For the compound `CN1CCN(c2nc(NN=Cc3ccc(O)cc3)nc(Nc3ccc([N+](=O)[O-])cc3)n2)CC1`, the concentration for a half-maximal effect (EC50) in the series on Plasmodium falciparum [1] is 1340 nM; with Plasmodium falciparum [3] it was greater than 1250 nM. In series [2], this compound returned a CC50 greater than 10 µM.

As for `COC(=O)c1c(S(=O)(=O)NCCN(C)C)sc2c1CCN(CC(C)c1ccccc1)C2` (configuration not stated), the values for the half-maximal effective concentration (EC50) in the series on Plasmodium falciparum [1] and in the series with Plasmodium falciparum [3] were greater than 1320 nM and 1610 nM, respectively. The same compound gave a CC50 in series [2] greater than 10 µM.

For the compound `CCCn1c(SCC(=O)Nc2ccccc2Cl)nc2c1c(=O)n(C)c(=O)n2C`, the EC50 was 1320 nM in the series on Plasmodium falciparum [1] and greater than 1250 nM in the series with Plasmodium falciparum [3]. In addition, the CC50 in series [2] was greater than 10 µM.

As for `CC[n+]1c(C=Cc2ccc(C)cc2)ccc2ccccc21`, the 50% effective concentration (EC50) with Plasmodium falciparum [1] worked out at 2700 nM; in the series with Plasmodium falciparum [3], 2990 nM. This compound also showed a CC50 in series [2] of 20.9 µM.

In the case of `COc1ccc(NC(=O)CCCCCn2c(SCC(=O)NCC3CCCO3)nc3ccsc3c2=O)cc1` (configuration not stated), the half-maximal effective concentration (EC50) with Plasmodium falciparum [1] is greater than 1320 nM; in the series on Plasmodium falciparum [3], greater than 725 nM. In addition, the cytotoxic concentration (CC50) in series [2] is greater than 10 µM.

As to `Cc1ccc(OCCCCN2CCOCC2)c([N+](=O)[O-])c1`, the results for the EC50 with Plasmodium falciparum [1] and in the series with Plasmodium falciparum [3] were greater than 1290 nM and greater than 564 nM, respectively. This compound registered a half-maximal cytotoxic concentration (CC50) in series [2] greater than 10 µM.

For `COc1ccc2nc(C)cc(Nc3ccc(Oc4ccc(Br)c5ccccc45)c(Cl)c3)c2c1`, the EC50 in the series with Plasmodium falciparum [1] was found to be 2340 nM; in the series with Plasmodium falciparum [3], 1110 nM. Moreover, the 50% cytotoxic concentration (CC50) in series [2] worked out at 18.3 µM.

Take `O=[N+]([O-])c1cccc(Cl)c1N1CCN(S(=O)(=O)Cc2ccccc2)CC1`: the concentration for a half-maximal effect (EC50) was 1300 nM in the series on Plasmodium falciparum [1] and greater than 1160 nM in the series with Plasmodium falciparum [3]. Besides, the CC50 in series [2] is greater than 10 µM.

Take `CCOC(=O)c1cc(-c2ccc(Cl)cc2Cl)[nH]c1N1CCN(c2ccc(OC)cc2)CC1`: the EC50 is greater than 1730 nM in the series on Plasmodium falciparum [1] and 1370 nM in the series on Plasmodium falciparum [3]. In series [2], the 50% cytotoxic concentration (CC50) is greater than 13.4 µM.

For the compound `c1cncc(-c2nc3cc(-c4ccc5[nH]c(-c6cccnc6)nc5c4)ccc3[nH]2)c1`, the figures for the concentration for a half-maximal effect (EC50) with Plasmodium falciparum [1] and in the series on Plasmodium falciparum [3] were 1290 nM and 1410 nM, respectively. Besides, the CC50 in series [2] is greater than 10 µM.

`CC(C)CNc1nc(NCCCN(C)C)ncc1C(=O)NCc1ccccc1`: the EC50 with Plasmodium falciparum [1] was greater than 1290 nM; in the series on Plasmodium falciparum [3] it was 316 nM. This compound returned a cytotoxic concentration (CC50) in series [2] greater than 10 µM.

Turning to `Cc1ccc(C2=NC(C(F)(F)F)(C(F)(F)F)N=C3C=CC(Cl)=CN32)cc1`, the figures for the EC50 in the series with Plasmodium falciparum [1] and in the series with Plasmodium falciparum [3] were greater than 1300 nM and greater than 1210 nM, respectively. For the same compound, in series [2], the cytotoxic concentration (CC50) is greater than 10 µM.

Consider `COc1ccccc1CNc1ncc(C(=O)NCc2ccccc2)c(NCCc2ccccc2)n1`, for which the concentration giving a half-maximal response (EC50) with Plasmodium falciparum [1] was greater than 1300 nM; with Plasmodium falciparum [3], 1280 nM. Besides, the CC50 in series [2] was greater than 10 µM.

For the compound `CCCN1CCC(NC2CCCc3c2[nH]c2ccc([N+](=O)[O-])cc32)CC1` (configuration not stated), the results for the EC50 in the series on Plasmodium falciparum [1] and with Plasmodium falciparum [3] were 3630 nM and 1160 nM, respectively. The compound further had a CC50 in series [2] of 28 µM.

For `O=c1c2sccc2nc(SCc2cc(=O)n3ccccc3n2)n1Cc1ccccc1`, the half-maximal effective concentration (EC50) in the series on Plasmodium falciparum [1] is 1280 nM; with Plasmodium falciparum [3] it was greater than 1250 nM. This compound had a 50% cytotoxic concentration (CC50) in series [2] greater than 10 µM.

Take `CCC(=O)N1CCN(C(=O)c2ccc(C)cc2)C1`: the 50% effective concentration (EC50) with Plasmodium falciparum [1] was 1280 nM; with Plasmodium falciparum [3] it was greater than 1500 nM. In series [2], this compound had a CC50 greater than 10 µM.

In the case of `O=C(O[Si](c1ccccc1)(c1ccccc1)c1ccccc1)c1ccccc1`, the EC50 was 1320 nM with Plasmodium falciparum [1] and greater than 1250 nM in the series with Plasmodium falciparum [3]. In addition, the half-maximal cytotoxic concentration (CC50) in series [2] is greater than 10 µM.

As for `Cc1ccc(Nc2nc(NN=Cc3ccc(-c4ccc(Cl)c([N+](=O)[O-])c4)o3)nc(N3CCOCC3)n2)c(Br)c1`, the results for the EC50 with Plasmodium falciparum [1] and in the series with Plasmodium falciparum [3] were 1320 nM and greater than 1060 nM, respectively. In series [2], the 50% cytotoxic concentration (CC50) is greater than 10 µM.

For `CC(=O)N1CCc2cc(Br)cc(S(=O)(=O)N3CCCC(C)C3)c21` (configuration not stated), the EC50 with Plasmodium falciparum [1] was 1320 nM; with Plasmodium falciparum [3], greater than 1730 nM. In addition, in series [2], the CC50 is greater than 10 µM.

In the case of `COC(=O)C1N(C(=O)OC)c2ccc([N+](=O)[O-])cc2S1(=O)=O` (configuration not stated), the results for the half-maximal effective concentration (EC50) in the series on Plasmodium falciparum [1] and with Plasmodium falciparum [3] were greater than 1280 nM and 362 nM, respectively. Also, in series [2], the CC50 is greater than 10 µM.

On to `CCOC(=O)c1cnc2cc(Cl)c(OC)cc2c1NCCCN1CCOCC1`, for which the results for the EC50 with Plasmodium falciparum [1] and in the series with Plasmodium falciparum [3] were 1340 nM and 1370 nM, respectively. Moreover, the CC50 in series [2] was greater than 10 µM.

For `CCc1ccc2c(c1)C(c1ccncc1)=NNC(c1ccncc1)=N2`, the results for the EC50 with Plasmodium falciparum [1] and in the series with Plasmodium falciparum [3] were greater than 1300 nM and 887 nM, respectively. Moreover, the cytotoxic concentration (CC50) in series [2] was greater than 10 µM.

As for `COc1cccc(C(=O)N(CCCC(C)Nc2cc(OC)cc3cccnc23)Cc2ccc(OC)c(OC)c2)c1` (configuration not stated), the results for the EC50 in the series on Plasmodium falciparum [1] and with Plasmodium falciparum [3] were 513 nM and 1480 nM, respectively. Besides, in series [2], the CC50 is greater than 4.01 µM.

With `COc1ccc2c(c1)c1c3n2CCN(Cc2ccccc2)C3=[N+](C)CC1`, the results for the EC50 in the series with Plasmodium falciparum [1] and with Plasmodium falciparum [3] were 1340 nM and 442 nM, respectively. This compound came in with a CC50 in series [2] greater than 10 µM.

Turning to `O=C(NCc1ccccc1)c1cnc(NCCCn2ccnc2)nc1NC1CCCC1`, the concentration giving a half-maximal response (EC50) amounted to 1320 nM in the series with Plasmodium falciparum [1] and 624 nM in the series with Plasmodium falciparum [3]. This compound returned a cytotoxic concentration (CC50) in series [2] greater than 10 µM.

For `O=C(Nc1cccc(-c2nc3ccccc3[nH]2)c1)c1ccccc1[N+](=O)[O-]`, the figures for the EC50 in the series on Plasmodium falciparum [1] and with Plasmodium falciparum [3] were greater than 772 nM and greater than 1720 nM, respectively. In series [2], this compound gave a cytotoxic concentration (CC50) greater than 6 µM.

On to `O=C(NCc1ccco1)c1cccc(Cl)c1Cl`, for which the figures for the EC50 with Plasmodium falciparum [1] and in the series on Plasmodium falciparum [3] were 1340 nM and greater than 1250 nM, respectively. The CC50 in series [2] was greater than 10 µM.

With `CCC(c1nc2ccccc2c(=O)n1-c1cccc(C)c1)N(CCc1ccccc1)C(=O)Nc1c(C(C)C)cccc1C(C)C` (configuration not stated), the results for the EC50 in the series with Plasmodium falciparum [1] and in the series on Plasmodium falciparum [3] were 1100 nM and 1070 nM, respectively. Moreover, the 50% cytotoxic concentration (CC50) in series [2] was greater than 8.51 µM.

On to `CC(C)N(CC(=O)Nc1cc(C(C)(C)C)nn1-c1ccc(Cl)c(Cl)c1)C(=O)c1ccc(C(F)(F)F)cc1`, for which the half-maximal effective concentration (EC50) came out at 1330 nM in the series on Plasmodium falciparum [1] and 845 nM with Plasmodium falciparum [3]. Moreover, in series [2], the CC50 was greater than 10 µM.

As for `CCCCCc1c(C)c(C#N)c2nc3ccccc3n2c1NCCN(CC)CC`, the concentration giving a half-maximal response (EC50) with Plasmodium falciparum [1] is 1320 nM; in the series on Plasmodium falciparum [3] it was greater than 1250 nM. For the same compound, the CC50 in series [2] is greater than 10 µM.

Take `Oc1cccc(-c2cncc(-c3cccnc3)n2)c1`: the figures for the EC50 in the series with Plasmodium falciparum [1] and in the series on Plasmodium falciparum [3] were 1290 nM and 1300 nM, respectively. The same compound displayed a CC50 in series [2] greater than 10 µM.

`Oc1ccc(-c2nc3ccccc3s2)cc1CN1CCCCC1`: the concentration giving a half-maximal response (EC50) worked out at 786 nM in the series on Plasmodium falciparum [1] and 1140 nM in the series with Plasmodium falciparum [3]. Moreover, the 50% cytotoxic concentration (CC50) in series [2] is greater than 6.13 µM.

For `CN1CCCC1CCNc1ncc(C(=O)NCCc2ccccc2)c(NCC2CCCCC2)n1` (configuration not stated), the EC50 turned out to be 1340 nM with Plasmodium falciparum [1] and 598 nM in the series on Plasmodium falciparum [3]. In series [2], this compound came in with a half-maximal cytotoxic concentration (CC50) greater than 10 µM.

Take `Cc1nc(N2CCCCC2)c2c(C)c(C(=O)N3CCN(c4ccccc4F)CC3)sc2n1`: the values for the EC50 with Plasmodium falciparum [1] and in the series with Plasmodium falciparum [3] were 1300 nM and greater than 1540 nM, respectively. The compound further had a CC50 in series [2] greater than 10 µM.

Take `Oc1ccccc1-c1nc(-c2ccccc2)nc(-c2ccc(Br)cc2)n1`: the EC50 in the series with Plasmodium falciparum [1] was greater than 1280 nM; with Plasmodium falciparum [3], greater than 1160 nM. This compound had a CC50 in series [2] greater than 10 µM.

In the case of `CCCN1CCC(N2C[C@@H](NC3CCCCCCC3)C[C@H]2C(=O)NCCc2ccc3c(c2)OCO3)CC1`, the half-maximal effective concentration (EC50) was greater than 1300 nM with Plasmodium falciparum [1] and greater than 1360 nM in the series with Plasmodium falciparum [3]. Also, the cytotoxic concentration (CC50) in series [2] is greater than 10 µM.

What is called EC50 is the midpoint of the concentration-response curve. A word on the CC50: it is the concentration that lowers cell viability or growth by half. The low end stands for harm at low concentration, the high end for better tolerance by the cells.

These data come from ChEMBL document CHEMBL1156829 (Proc Natl Acad Sci U S A, 2008).
